# In ChEMBL document CHEMBL4831530, “Exploring Marine-Derived Ascochlorins as Novel Human Dihydroorotate Dehydrogenase Inhibitors for Treatment of Triple-Negative Breast Cancer” (J Med Chem, 2021):
# The source made the active and inactive calls. No cut-off for these calls is given here.
# Assays:
# MDA-MB-231 [1] = experiment: Cytotoxicity against human MDA-MB-231 cells assessed as reduction in cell viability incubated for 24 hrs by CellTiter-Glo luminescent assay; format: functional, cell-based
# MDA-MB-468 [2] = experiment: Cytotoxicity against human MDA-MB-468 cells assessed as reduction in cell viability incubated for 24 hrs by CellTiter-Glo luminescent assay; format: functional, cell-based
# [3] = molecular target: Dihydroorotate dehydrogenase (quinone), mitochondrial (Homo sapiens, UniProt Q02127); experiment: Inhibition of recombinant N-terminal His-tagged human DHODH (31 to 395 residues) expressed in Escherichia coli using DL-dihydroorotic acid as substrate and Q0 as coenzyme by DCIP based assay
# [4] = Toxicity in NOD/SCID mouse xenografted with patient-derived breast cancer cells assessed as effect on body weight loss at 15 to 60 mg/kg, ip administered 5 times a week and measured after 21 days; format: organism-based; conditions: in vivo, 504 h, dose 15-60 mg/kg, time 21 day
# [5] = Toxicity in NOD/SCID mouse xenografted with patient-derived breast cancer cells assessed as effect on organ damage at 15 to 60 mg/kg, ip administered 5 times a week and measured after 21 days by hematoxylin and eosin staining based analysis; format: organism-based; conditions: in vivo, 504 h, dose 15-60 mg/kg, time 21 day
# MDA-MB-468 [6] = experiment: Inhibition of cell proliferation in human MDA-MB-468 cells at <=10 uM incubated for 4 days in presence of uridine by CellTiter-Glo luminescent assay; format: functional, cell-based; conditions: dose microM <=10, time 4.0 day
# MDA-MB-231 [7] = experiment: Inhibition of cell proliferation in human MDA-MB-231 cells at <=10 uM incubated for 4 days in presence of uridine by CellTiter-Glo luminescent assay; format: functional, cell-based; conditions: dose microM <=10, time 4.0 day
# MDA-MB-231 [8] = experiment: Induction of apoptosis in human MDA-MB-231 cells assessed as increase in apoptotic cells incubated for 2 days by annexin-V/FITC propidium iodide staining based flow cytometry analysis; format: functional, cell-based; conditions: time 2.0 day
# MDA-MB-468 [9] = experiment: Induction of apoptosis in human MDA-MB-468 cells assessed as increase in apoptotic cells incubated for 2 days by annexin-V/FITC propidium iodide staining based flow cytometry analysis; format: functional, cell-based; conditions: time 2.0 day
# [10] = Toxicity in NOD/SCID mouse xenografted with patient-derived breast cancer cells assessed as liver injury at 2.5 to 10 mg/kg, ip administered 5 times a week and measured after 16 days by hematoxylin and eosin staining based analysis; format: organism-based; conditions: in vivo, 384 h, dose 2.5-10 mg/kg, time 16 day
# [11] = Toxicity in NOD/SCID mouse xenografted with patient-derived breast cancer cells assessed as body weight loss at 2.5 to 10 mg/kg, ip administered 5 times a week and measured after 16 days; format: organism-based; conditions: in vivo, 384 h, dose 2.5-10 mg/kg, time 16 day
# Breast cancer cell line = experiment: Antitumor activity against patient-derived breast cancer cells xenografted in NOD/SCID mouse assessed as tumor growth suppression at 20 mg/kg, ip administered every 2 days and measured after 21 days; format: functional, organism-based; conditions: Homo sapiens, time 21.0 day
# [12] = Toxicity in NOD/SCID mouse xenografted with patient-derived breast cancer cells assessed as effect on body weight loss at 5 mg/kg, ip administered 5 times a week and measured after 16 days; format: organism-based; conditions: in vivo, 384 h, time 16 day
# MDA-MB-468 [13] = experiment: Induction of apoptosis in human MDA-MB-468 cells assessed as increase in cleaved caspase7 level measured after 2 days by Western blot analysis; format: functional, cell-based; conditions: dose 0.5-2 µM, time 2.0 day
# [14] = Antitumor activity against patient-derived breast cancer cells xenografted in NOD/SCID mouse assessed as tumor growth suppression at 5 mg/kg, ip administered 5 times a week and measured after 16 days relative to control; format: functional; conditions: Homo sapiens, Breast cancer cell line, 384 h, time 16 day
# LNCaP C4-2B = experiment: Cytotoxicity against human LNCaP C4-2B cells assessed as reduction in cell viability incubated for 24 hrs by CellTiter-Glo luminescent assay; format: functional, cell-based
# HL-60 = experiment: Cytotoxicity against human HL-60 cells assessed as reduction in cell viability incubated for 24 hrs by CellTiter-Glo luminescent assay; format: functional, cell-based
# MDA-MB-231 [15] = experiment: Induction of apoptosis in human MDA-MB-231 cells assessed as increase in cleaved caspase7 level measured after 2 days by Western blot analysis; format: functional, cell-based; conditions: dose 0.5-2 µM, time 2.0 day
# 143B = experiment: Cytotoxicity against human 143B cells assessed as reduction in cell viability incubated for 24 hrs by CellTiter-Glo luminescent assay; format: functional, cell-based
# MDA-MB-468 [16] = experiment: Induction of apoptosis in human MDA-MB-468 cells assessed as increase in cleaved PARP1 level measured after 2 days by Western blot analysis; format: functional, cell-based; conditions: dose 0.5-2 µM, time 2.0 day
# [17] = Antitumor activity against patient-derived breast cancer cells xenografted in NOD/SCID mouse assessed as reduction in tumor volume at 5 mg/kg, ip administered 5 times a week and measured after 16 days relative to control; format: functional, Homo sapiens, Breast cancer cell line; parameters: scale not given: the % may be the effect or the level left; conditions: time 16 day
# MDA-MB-231 [18] = experiment: Induction of apoptosis in human MDA-MB-231 cells assessed as increase in cleaved PARP1 level measured after 2 days by Western blot analysis; format: functional, cell-based; conditions: dose 0.5-2 µM, time 2.0 day
# [19] = Toxicity in NOD/SCID mouse xenografted with patient-derived breast cancer cells assessed as effect on organ damage at 5 mg/kg, ip administered 5 times a week and measured after 16 days by hematoxylin and eosin staining based analysis; format: organism-based; conditions: in vivo, 384 h, time 16 day
# Chain of Dihydroorotate dehydrogenase (quinone), mitochondrial (Q02127 whole entry, the tested form may be a part): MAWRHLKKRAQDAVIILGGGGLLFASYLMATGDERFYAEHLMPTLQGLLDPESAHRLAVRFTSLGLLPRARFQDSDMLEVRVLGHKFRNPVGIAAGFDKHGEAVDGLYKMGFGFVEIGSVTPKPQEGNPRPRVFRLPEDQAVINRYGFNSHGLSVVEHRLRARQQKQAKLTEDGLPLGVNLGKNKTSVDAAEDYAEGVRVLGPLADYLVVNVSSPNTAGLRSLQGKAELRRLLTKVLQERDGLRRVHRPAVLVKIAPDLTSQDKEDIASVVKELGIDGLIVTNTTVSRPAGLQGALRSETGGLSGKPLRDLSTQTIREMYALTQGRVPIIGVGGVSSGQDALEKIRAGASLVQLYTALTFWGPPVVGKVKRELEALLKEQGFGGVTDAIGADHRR
Structure (SMILES),"IC50 (MDA-MB-231 [1]; Homo sapiens, MDA-MB-231, 24 h)","IC50 (MDA-MB-468 [2]; Homo sapiens, MDA-MB-468, 24 h)",IC50 [3],other results
Cc1c(Cl)c2c(c(O)c1C=O)C[C@H]([C@@](C)(O)/C=C/[C@@]1(C)[C@H](C)CCC(=O)[C@@H]1C)O2,25 µM,26 µM,> 60 µM,–
O=c1[nH]cc(F)c(=O)[nH]1 [FLUOROURACIL],15 µM,> 20 µM,–,–
C=C(/C=C/[C@@]1(C)[C@H](C)CCC(=O)[C@@H]1C)[C@H](O)Cc1c(O)c(Cl)c(C)c(C=O)c1O,45 µM,34 µM,3.9 µM,–
C/C(=C\Cc1c(O)cc(C)c(C=O)c1O)CC/C=C(\C)CC[C@H](O)C(C)(C)O,> 60 µM,29 µM,5 µM,–
CC(=O)O[C@@H](CC/C(C)=C/CC/C(C)=C/Cc1c(O)c(Cl)c(C)c(C=O)c1O)C(C)(C)O,7.4 µM,6 µM,30 µM,Activity [4]: Non-Toxic; Activity [5]: Non-Toxic; inhibition (MDA-MB-468 [6]): inactive; inhibition (MDA-MB-231 [7]): inactive; Activity (MDA-MB-231 [8]): Dose-Dependent Effect; Activity (MDA-MB-468 [9]): Dose-Dependent Effect
C/C(=C\Cc1c(O)c(Cl)c(C)c(C=O)c1O)CC/C(C)=C(\C)C(C)CCCO (stereo not given),12 µM,7.5 µM,32 µM,–
CC(/C=C/[C@@]1(C)[C@H](C)CCC(=O)[C@@H]1C)=C\Cc1c(O)cc(C)c(C=O)c1O,> 60 µM,38 µM,42 µM,–
C/C(=C\Cc1c(O)c(Cl)c(C)c(C(=O)O)c1O)CC/C=C(\C)CC[C@H](O)C(C)(C)O,> 60 µM,49 µM,20 µM,–
C/C(=C\Cc1c(O)c(Cl)c(C)c(C=O)c1O)CC/C=C(\C)[C@@H]1C[C@H](O)C(C)(C)O1,12 µM,11 µM,0.72 µM,–
C/C(=C\Cc1c(O)c(Cl)c(C)c(C=O)c1O)CC[C@@]1(C)[C@H](C)CCC(=O)[C@@H]1C [ILICICOLIN C],34 µM,13 µM,1.9 µM,–
C/C(=C\C[C@@]1(C)[C@H](C)CCC(=O)[C@@H]1C)[C@@H](O)Cc1c(O)c(Cl)c(C)c(C=O)c1O,41 µM,15 µM,4.7 µM,–
C/C(=C\Cc1c(O)cc(C)c(C=O)c1O)CC/C=C(\C)CCC(=O)C(C)(C)O,> 60 µM,57 µM,7.9 µM,–
C/C(=C\Cc1c(O)c(Cl)c(C)c(C=O)c1O)CC/C=C(\C)CCC(=O)C(C)(C)O,> 60 µM,> 60 µM,9.3 µM,–
Cc1c(Cl)c(O)c(C[C@@H]2[C@@]3(C)CC[C@H](O)C(C)(C)[C@@H]3CC[C@@]2(C)O)c(O)c1C=O,> 60 µM,> 60 µM,31 µM,–
C/C(=C\Cc1c(O)c(Cl)c(C)c(C=O)c1O)CC/C=C(\C)CC[C@@H]1OC1(C)C,24 µM,16 µM,1.6 µM,–
C/C(=C\Cc1c(O)c(Cl)c(C)c(C=O)c1O)CC/C=C(\C)[C@@H]1CC(=O)C(C)(C)O1 [ASCOFURANONE],5.2 µM,7.1 µM,5.4 µM,–
C/C(=C\Cc1c(O)c(Cl)c(C)c(C=O)c1O)CC/C=C(\C)CC[C@H](O)C(C)(C)O,23 µM,20 µM,3.7 µM,–
Cc1c(-c2ccc(-c3ccccc3F)cc2)nc2ccc(F)cc2c1C(=O)O [BREQUINAR],–,–,–,IC50 (MDA-MB-231 [1]; mda-mb-231): 0.31 µM; Activity [10]: Toxic; IC50 (MDA-MB-468 [2]; mda-mb-468): 0.082 µM; Activity [11]: Toxic
CC(/C=C/[C@@]1(C)[C@H](C)CCC(=O)[C@@H]1C)=C\Cc1c(O)c(Cl)c(C)c(C=O)c1O [ASCOCHLORIN],2.2 µM,1.1 µM,1.3 µM,–
C=C(C)[C@@H](O)CC/C(C)=C/CC/C(C)=C/Cc1c(O)c(Cl)c(C)c(C=O)c1O,3.3 µM,1.7 µM,0.39 µM,–
C=C1CCC(=O)C(C)(C)[C@@H]1CC/C(C)=C/Cc1c(O)c(Cl)c(C)c(C(=O)O)c1O,> 60 µM,> 60 µM,15 µM,–
C/C(=C\Cc1c(O)c(Cl)c(C)c(C=O)c1O)[C@H](O)C[C@@]1(C)[C@H](C)CCC(=O)[C@@H]1C,38 µM,45 µM,6.5 µM,–
C/C(O)=C(\C#N)C(=O)Nc1ccc(C(F)(F)F)cc1 [TERIFLUNOMIDE],14 µM,> 20 µM,–,inhibition (Breast cancer cell line): Active
CC(/C=C/[C@@]1(C)[C@H](C)CC[C@@H](O)[C@@H]1C)=C\Cc1c(O)c(Cl)c(C)c(C=O)c1O,> 60 µM,> 60 µM,13 µM,–
C/C(=C\Cc1c(O)c(Cl)c(C)c(C=O)c1O)CC[C@H]1C(C)(C)C(=O)CC[C@@]1(C)O,> 60 µM,> 60 µM,11 µM,–
C=C1CC[C@H](O)C(C)(C)[C@@H]1CC/C(C)=C/Cc1c(O)c(Cl)c(C)c(C=O)c1O,0.65 µM,0.48 µM,0.074 µM,Activity [12]: Non-Toxic; Activity (MDA-MB-468 [13]): Dose-Dependent Effect; inhibition in vivo at 5 mg/kg [14]: 51.7%; Activity (LNCaP C4-2B): Dose-Dependent Effect; Activity (HL-60): Dose-Dependent Effect; inhibition (MDA-MB-468 [6]): inactive; Activity (MDA-MB-231 [15]): Dose-Dependent Effect; Activity (143B): Dose-Dependent Effect; Activity (MDA-MB-468 [16]): Dose-Dependent Effect; Activity [17]: 37.41%; inhibition (MDA-MB-231 [7]): inactive; Activity (MDA-MB-231 [8]): Dose-Dependent Effect; Activity (MDA-MB-231 [18]): Dose-Dependent Effect; Activity [19]: Non-Toxic; Activity (MDA-MB-468 [9]): Dose-Dependent Effect
C/C(=C\Cc1c(O)c(Cl)c(C)c(C=O)c1O)CC[C@H]1C(C)(C)C(=O)CC[C@]1(C)O,> 60 µM,> 60 µM,34 µM,–
C/C(=C\Cc1c(O)cc(C)c(C=O)c1O)CC[C@@]1(C)[C@H](C)CCC(=O)[C@@H]1C [ILICICOLIN F],26 µM,27 µM,11 µM,–
